Measured values reported in PMC6327044, “A chemical biology screen identifies a vulnerability of neuroendocrine cancer cells to SQLE inhibition” (Nature Communications, 2019).

Columns and labels:
Experiment in all cases: cells
Set-up in all cases: species or system panel of 482 human cancer cell lines; ATPLite luminescence growth inhibition after treatment, nine-point dilution curve, 482 cancer cell lines, 384-well
Details in all cases: 72 h, recommended growth medium
[1] = tested on: KMS34_HAEMATOPOIETIC_AND_LYMPHOID_TISSUE
Method in brief: (§1)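 Growth inhibition was measured across a panel of 482 cancer cell lines. Cells were plated at 500 cells per well in recommended growth media in black, tissue culture treated 384-well plates, centrifuged to equilibrate, and incubated 24 h before dosing. Compounds were tested as nine-point dilution curves for 72 h, with viability read by ATPLite luminescence relative to DMSO-treated controls.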

HCC1500_BREAST = tested on: HCC1500_BREAST
Method in brief: as §1

SNU503_LARGE_INTESTINE = tested on: SNU503_LARGE_INTESTINE
Method in brief: as §1

MORCPR_LUNG = tested on: MORCPR_LUNG
Method in brief: as §1

SNU601_STOMACH = tested on: SNU601_STOMACH
Method in brief: as §1

CHP126_AUTONOMIC_GANGLIA = tested on: CHP126_AUTONOMIC_GANGLIA
Method in brief: as §1

TE11_OESOPHAGUS = tested on: TE11_OESOPHAGUS
Method in brief: as §1

[2] = tested on: SUDHL6_HAEMATOPOIETIC_AND_LYMPHOID_TISSUE
Method in brief: as §1

GSS_STOMACH = tested on: GSS_STOMACH
Method in brief: as §1

AU565_BREAST = tested on: AU565_BREAST
Method in brief: as §1

NCIH1155_LUNG = tested on: NCIH1155_LUNG
Method in brief: as §1

NCIH2405_LUNG = tested on: NCIH2405_LUNG
Method in brief: as §1

TE4_OESOPHAGUS = tested on: TE4_OESOPHAGUS
Method in brief: as §1

CCN(C/C=C/C#CC(C)(C)C)Cc1cccc(OCc2cc(-c3ccsc3)cs2)c1 [NB-598]
GI50 [1]: 2070 nM
GI50 (HCC1500_BREAST): 1480 nM
GI50 (SNU503_LARGE_INTESTINE): 598 nM
GI50 (MORCPR_LUNG): 2690 nM
GI50 (SNU601_STOMACH): 5400 nM
GI50 (CHP126_AUTONOMIC_GANGLIA): 38.2 nM
GI50 (TE11_OESOPHAGUS): 8580 nM
GI50 [2]: 78.9 nM
GI50 (GSS_STOMACH): 12300 nM
GI50 (AU565_BREAST): 399000 nM
GI50 (NCIH1155_LUNG): 5.17 nM
GI50 (NCIH2405_LUNG): 39.4 nM
GI50 (TE4_OESOPHAGUS): 19500 nM
